Paper PMC11322497 (Frontiers in Pharmacology, 2024)

System: high fat diet (HFD) rabbit model of metabolic-associated steatohepatitis (MASH)
Test: HFD rabbit study, acute 5-day treatment: liver markers mRNA expression by RT-PCR
Format: in vivo, New Zealand White rabbits
Settings: 30 mg/kg p.o. 5 days, week 12, mean ± SD, n = 3
Protocol: After 1 week of standard diet, animals (n = 12) were randomly assigned to the following groups (Table 1A): • Control rabbits continued to receive a regular diet (RD) for 12 weeks and were treated for 5 days (days 1–5, p.o.), during the last week before culling, with either vehicle; RD+1W Veh group] or GB1211 (30 mg/kg; RD + 1W 30 mg group); • Rabbits received a high fat diet (HFD) for 12 weeks (RD implemented with 0.5% cholesterol and 2.5% vegetable fat) and were treated for 5 days (days 1–5, p.o.), during the last week before culling, with either vehicle (HFD + 1W Veh group) or GB1211 (30 mg/kg; HFD + 1W 30 mg group).
TRIzol reagent (Life Technologies, Paisley, United Kingdom) and/or RNeasy Mini Kit (Qiagen, Hilden, Germany) were used to isolate total RNA from rabbit liver specimens. RNA concentration and quality were measured using a Nanodrop ND-1000 (Thermo Fisher Scientific) at 260 nm and 280 nm. The OD 260/280 absorbance ratios were between 2.0 and 2.1 for all samples, to confirm RNA integrity and purification. cDNA synthesis was carried out using the iScript™ cDNA Synthesis Kit (Bio-Rad Laboratories, Hercules, CA), with 100 ng of mRNA in 20 µL reaction volume in accordance with the following protocol: 5 min at 25°C, 20 min at 46°C and 5 min at 85°C, followed by refrigeration at 4°C.
Semi-quantitative real-time RT-PCR (qRT-PCR) amplification and detection was performed with SsoAdvanced™ universal SYBR® Supermix and a CFX96 Two-Color Real-Time PCR Detection System (both Bio-Rad Laboratories) with the following thermal cycler conditions: 40 cycles at 95°C for 15 s and 60°C for 1 min. Specific PCR primers for rabbit target genes were designed on sequences available at the National Center for Biotechnology Information GenBank (http://www.ncbi.nlm.nih.gov) or Ensemble Genome (http://www.ensembl.org).
The 18S ribosomal RNA subunit was quantified with a predeveloped assay (Hs99999901_s1, Life Technologies) and used as the housekeeping gene for the relative quantitation of the target genes based on the comparative threshold cycle (Ct) 2^−ΔΔCt method ([Livak and Schmittgen, 2001]), with some modifications. In detail, we used the vehicle control groups as the calibrator in each analysis, so that the calculations would provide the fold-change of the other groups relative to controls.

SMILES: OC[C@H]1O[C@H](Sc2cncc(Br)c2)[C@H](O)[C@@H](n2cc(-c3cc(F)c(F)c(F)c3)nn2)[C@H]1O [selvigaltin]
- CD8 liver mRNA expression (HFD rabbits): 1.76 ± 0.20 fold-change vs. RD+1W Veh
- COL1A1 liver mRNA expression (HFD rabbits): 20.12 ± 15.24 fold-change vs. RD+1W Veh
- COL3A1 liver mRNA expression (HFD rabbits): 9.96 ± 7.51 fold-change vs. RD+1W Veh
- COX-2 liver mRNA expression (HFD rabbits): 8.81 ± 10.30 fold-change vs. RD+1W Veh
- EDN1 liver mRNA expression (HFD rabbits): 1.32 ± 0.21 fold-change vs. RD+1W Veh
- EDNRA liver mRNA expression (HFD rabbits): 7.73 ± 5.69 fold-change vs. RD+1W Veh
- EDNRB liver mRNA expression (HFD rabbits): 2.23 ± 0.95 fold-change vs. RD+1W Veh
- FN1 liver mRNA expression (HFD rabbits): 0.98 ± 0.14 fold-change vs. RD+1W Veh
- FOXP3 liver mRNA expression (HFD rabbits): 5.15 ± 2.78 fold-change vs. RD+1W Veh
- IGF-1 liver mRNA expression (HFD rabbits): 0.34 ± 0.08 fold-change vs. RD+1W Veh
- LGALS3 liver mRNA expression (HFD rabbits): 116.95 ± 77.56 fold-change vs. RD+1W Veh
- PAI-1 liver mRNA expression (HFD rabbits): 14.10 ± 16.47 fold-change vs. RD+1W Veh
- SNAI2 liver mRNA expression (HFD rabbits): 1.55 ± 0.26 fold-change vs. RD+1W Veh
- TBET liver mRNA expression (HFD rabbits): 0.74 ± 0.14 fold-change vs. RD+1W Veh
- TGFβ1 liver mRNA expression (HFD rabbits): 4.25 ± 2.06 fold-change vs. RD+1W Veh
- TGFβ3 liver mRNA expression (HFD rabbits): 2.97 ± 1.96 fold-change vs. RD+1W Veh
- αSMA liver mRNA expression (HFD rabbits): 5.77 ± 3.34 fold-change vs. RD+1W Veh
- CD8 liver mRNA expression (RD rabbits): 1.14 ± 0.81 fold-change vs. RD+1W Veh
- COL1A1 liver mRNA expression (RD rabbits): 0.82 ± 0.40 fold-change vs. RD+1W Veh
- COL3A1 liver mRNA expression (RD rabbits): 0.47 ± 0.21 fold-change vs. RD+1W Veh
- COX-2 liver mRNA expression (RD rabbits): 2.52 ± 1.59 fold-change vs. RD+1W Veh
- EDN1 liver mRNA expression (RD rabbits): 0.91 ± 0.20 fold-change vs. RD+1W Veh
- EDNRA liver mRNA expression (RD rabbits): 0.89 ± 0.29 fold-change vs. RD+1W Veh
- EDNRB liver mRNA expression (RD rabbits): 0.79 ± 0.19 fold-change vs. RD+1W Veh
- FN1 liver mRNA expression (RD rabbits): 1.05 ± 0.12 fold-change vs. RD+1W Veh
- FOXP3 liver mRNA expression (RD rabbits): 0.86 ± 0.12 fold-change vs. RD+1W Veh
- IGF-1 liver mRNA expression (RD rabbits): 1.01 ± 0.19 fold-change vs. RD+1W Veh
- LGALS3 liver mRNA expression (RD rabbits): 1.27 ± 1.04 fold-change vs. RD+1W Veh
- PAI-1 liver mRNA expression (RD rabbits): 2.63 ± 1.79 fold-change vs. RD+1W Veh
- SNAI2 liver mRNA expression (RD rabbits): 1.01 ± 0.31 fold-change vs. RD+1W Veh
- TBET liver mRNA expression (RD rabbits): 0.75 ± 0.20 fold-change vs. RD+1W Veh
- TGFβ1 liver mRNA expression (RD rabbits): 0.95 ± 0.31 fold-change vs. RD+1W Veh
- TGFβ3 liver mRNA expression (RD rabbits): 0.70 ± 0.08 fold-change vs. RD+1W Veh
- αSMA liver mRNA expression (RD rabbits): 0.96 ± 0.59 fold-change vs. RD+1W Veh
